Holding throughout (type): biochemical
Assay [1] deals with T1, papain (Carica papaya, UniProt P00784).
T1 sequence (P00784 134-345): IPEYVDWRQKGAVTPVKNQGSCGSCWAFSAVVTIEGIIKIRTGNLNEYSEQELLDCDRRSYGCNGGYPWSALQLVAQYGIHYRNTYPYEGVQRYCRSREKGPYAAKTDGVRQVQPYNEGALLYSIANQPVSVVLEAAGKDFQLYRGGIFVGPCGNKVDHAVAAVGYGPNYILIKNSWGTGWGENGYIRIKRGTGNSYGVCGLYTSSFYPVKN
Nature of the assay: Inhibition of papain, incubation method. The note with it: pH 7.5; second-order rate constant; NI = no inhibition; read-out: kobs/[I] papain. The protocol:
(§1) The release of 7-amino-4-methylcoumarin was monitored (λex=360 nm, λem=465 nm) using a Tecan Spectra Fluor microplate reader. Pseudo first-order inactivation rate constants were obtained from plots of In vt/vo versus time.
The incubation method was also used for papain. The inhibition incubation buffer for papain was 50 mM Hepes buffer at pH 7.5, containing 2.5 mM DTT and 2.5 mM EDTA. The assay used the substrate Z-Phe-Arg-pNA (53.7 μM) in the same buffer. The approximate concentration of papain added to the incubation buffer was 0.29 mg/mL. The release of p-nitroanilide was monitored at 405 nm with a Molecular Devices Thermomax microplate reader.

The target of assay [2] is cathepsin B (Homo sapiens, UniProt P07858). Nature of the assay: Inhibition of cathepsin B, incubation method. The note with it: second-order rate constant, NI = no inhibition; for kinact/KI: pH 6, read-out: kobs/[I] cathepsin B.
From the text: as §1

The target in assay [3] is T2, caspase-1 (Homo sapiens, UniProt P29466, D381E).
T2 construct: His tag (N); made in house; host or cells: E. coli
T2 sequence (P29466 120-297 limits assumed): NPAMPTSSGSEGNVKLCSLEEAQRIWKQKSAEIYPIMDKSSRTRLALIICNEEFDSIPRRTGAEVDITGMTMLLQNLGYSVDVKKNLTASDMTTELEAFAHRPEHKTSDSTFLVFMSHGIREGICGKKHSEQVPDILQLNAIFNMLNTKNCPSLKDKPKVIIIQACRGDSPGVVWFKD
T2 sequence (P29466 317-404 D381E limits assumed): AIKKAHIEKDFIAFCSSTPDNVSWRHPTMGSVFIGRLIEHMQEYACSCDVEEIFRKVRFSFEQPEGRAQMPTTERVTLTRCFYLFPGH
Put plainly: Caspase-1 progress curve assay. The note with it: D381E variant, substrate Ac-YVAD-AMC, 30° C. The essentials: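 Autolysis-resistant D381E caspase-1 (E. coli, N-His tag), about 2 nM, added with 15 μM Ac-YVAD-AMC in HEPES/glycerol/EDTA buffer with 5 mM DTT to prewarmed compound at 30 °C. AMC fluorescence followed 900 s, triplicate curves fit to irreversible inactivation; kon (M^−1s^−1) from regression slope.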

For assay [4], the target named is T3, caspase-3 (Homo sapiens, UniProt P42574).
T3 construct: made in house; host or cells: E. coli
T3 sequence (P42574 29-175 limits assumed): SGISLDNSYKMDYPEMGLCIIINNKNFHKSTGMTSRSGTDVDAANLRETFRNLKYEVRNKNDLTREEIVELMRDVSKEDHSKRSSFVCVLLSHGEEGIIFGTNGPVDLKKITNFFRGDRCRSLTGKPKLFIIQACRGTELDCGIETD
T3 sequence (P42574 176-277 limits assumed): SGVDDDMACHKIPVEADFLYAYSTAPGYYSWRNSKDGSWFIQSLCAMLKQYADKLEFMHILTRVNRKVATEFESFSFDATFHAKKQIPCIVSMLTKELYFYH
Put plainly: Caspase-3 progress curve assay. To be noted: substrate Z-DEVD-AFC; NI = no inhibition. The gist of the method: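 E. coli-expressed caspases, pre-activated 10 min at 37° C with 10 mM DTT, were added to 100 μM Z-DEVD-AFC plus inhibitor in 50 mM Hepes, 100 mM NaCl, 0.1% CHAPS, 10% sucrose, 10 mM DTT, pH 7.4. AFC fluorescence (ex 400/em 505 nm) was followed; inhibition rates and equilibria came from progress curves.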

Consider `CCOC(=O)[C@@H]1O[C@H]1C(=O)N(NCc1ccccc1)C(=O)OCc1ccccc1` (relative stereo) [Cbz-APhe-trans-EP-COOEt, trans-3-(N^2-Benzyl-N^1-benzyloxycarbonylhydrazinocarbonyl)oxirane-2-carboxylic Acid Ethyl Ester], for which the kinact/KI in assay [1] is 8.5 M⁻¹ s⁻¹; in assay [2] it was 1.8 M⁻¹ s⁻¹.
Take `C[C@H](NC(=O)OCc1ccccc1)C(=O)N[C@@H](C)C(=O)NN(CC(N)=O)C(=O)[C@@H]1O[C@H]1C(=O)OCc1ccccc1` (relative stereo) [Cbz-Ala-Ala-AAsn-trans-EP-COOCH2Ph, trans-3-(N^2-(N-Benzyloxycarbonylalanylalanyl)-N^1-carbamoylmethylhydrazinocarbonyl)oxirane-2-carboxylic Acid Benzyl Ester]: the kinact/KI in assay [2] was determined as 1.09 M⁻¹ s⁻¹.
The same measure, in the same setting: then `CCOC(=O)[C@@H]1O[C@H]1C(=O)N(CC(N)=O)NC(=O)[C@H](C)NC(=O)[C@H](C)NC(=O)OCc1ccccc1` (relative stereo) [Cbz-Ala-Ala-AAsn-trans-EP-COOEt, trans-3-(N^2-(N-Benzyloxycarbonylalanylalanyl)-N^1-carbamoylmethylhydrazinocarbonyl)oxirane-2-carboxylic Acid Ethyl Ester], with 1.27 M⁻¹ s⁻¹.
Consider `CCOC(=O)CN(NC(=O)[C@H](C)NC(=O)[C@H](C)NC(=O)OCc1ccccc1)C(=O)[C@@H]1O[C@H]1C(=O)OCC` (relative stereo) [Cbz-Ala-Ala-NHN(CH2COOEt)-trans-EP-COOEt, trans-3-(N^2-(N-Benzyloxycarbonylalanylalanyl)-N^1-ethoxycarbonylmethylhydrazinocarbonyl)oxirane-2-carboxylic Acid Ethyl Ester], for which the values for the kinact/KI in assay [1] and in assay [2] were 8.17 M⁻¹ s⁻¹ and 2.53 M⁻¹ s⁻¹, respectively.
For `CCOC(=O)[C@@H]1O[C@H]1C(=O)N(CCC(N)=O)NC(=O)[C@H](Cc1ccccc1)NC(=O)[C@H](CC(C)C)NC(=O)OCc1ccccc1` (relative stereo) [Cbz-Leu-Phe-AGln-trans-EP-COOEt, trans-3-(N^2-(N-Benzyloxycarbonylleucylphenylalanyl)-N^1-carbamoylethylhydrazinocarbonyl)oxirane-2-carboxylic Acid Ethyl Ester], in that order: 0.9 M⁻¹ s⁻¹ and 1.3 M⁻¹ s⁻¹.
Take `CC(C)[C@H](NC(=O)CCc1ccccc1)C(=O)N[C@@H](C)C(=O)NN(CC(=O)O)C(=O)[C@H]1O[C@@H]1C(=O)OCc1ccccc1` [23d (S,S)]: the “kobs/[I] cathepsin B” value in assay [2] is 0.81 M⁻¹ s⁻¹. Also, the “k2 caspase-1” value in assay [3] was 52140 ± 5295 M⁻¹ s⁻¹. Moreover, in assay [4], the “k2 caspase-3” value came to 1470 ± 40 M⁻¹ s⁻¹.
For `CCOC(=O)[C@@H]1O[C@H]1C(=O)N(CC(=O)O)NC(=O)[C@@H](NC(=O)[C@H](CCC(=O)O)NC(=O)[C@H](CC(C)C)NC(=O)OCc1ccccc1)[C@@H](C)O` [26c (R,R), (2R,3R)-3-(N^2-(N-Benzyloxycarbonylleucylglutamylthreonyl)-N^1-carboxymethylhydrazinocarbonyl)oxirane-2-carboxylic Acid Ethyl Ester], the kinact/KI in assay [1] is 0.24 M⁻¹ s⁻¹. For the same compound, in assay [3], the “k2 caspase-1” value came out at 19570 M⁻¹ s⁻¹. Moreover, the “k2 caspase-3” value in assay [4] is 3250 ± 160 M⁻¹ s⁻¹.
For `CCOC(=O)[C@H]1O[C@@H]1C(=O)N(CC(=O)O)NC(=O)[C@@H](NC(=O)[C@H](CCC(=O)O)NC(=O)[C@H](CC(C)C)NC(=O)OCc1ccccc1)[C@@H](C)O` [26c (S,S), (2S,3S)-3-(N^2-(N-Benzyloxycarbonylleucylglutamylthreonyl)-N^1-carboxymethylhydrazinocarbonyl)oxirane-2-carboxylic Acid Ethyl Ester], in that order: 0.47 M⁻¹ s⁻¹, 25730 M⁻¹ s⁻¹ and 3210 ± 315 M⁻¹ s⁻¹.
For the compound `CCOC(=O)[C@H]1O[C@@H]1C(=O)N(CCC(N)=O)NC(=O)[C@H](Cc1ccccc1)NC(=O)[C@H](CC(C)C)NC(=O)OCc1ccccc1` [Cbz-Leu-Phe-AGln-(2S, 3S)-EP-COOEt, (2S,3S)-3-(N^2-(N-Benzyloxycarbonylleucylphenylalanyl)-N^1-carbamoylethylhydrazinocarbonyl)oxirane-2-carboxylic Acid Ethyl Ester], in assay [2], the kinact/KI amounted to 4.73 M⁻¹ s⁻¹.

The values above are taken from US7056947B2, “Aza-peptide epoxides” (Georgia Tech Research Corp., priority 2002, dated 2006).
